SMILES strings stand for the structures. Some results are limits rather than exact numbers.

T2 sequence (P00921 2-260): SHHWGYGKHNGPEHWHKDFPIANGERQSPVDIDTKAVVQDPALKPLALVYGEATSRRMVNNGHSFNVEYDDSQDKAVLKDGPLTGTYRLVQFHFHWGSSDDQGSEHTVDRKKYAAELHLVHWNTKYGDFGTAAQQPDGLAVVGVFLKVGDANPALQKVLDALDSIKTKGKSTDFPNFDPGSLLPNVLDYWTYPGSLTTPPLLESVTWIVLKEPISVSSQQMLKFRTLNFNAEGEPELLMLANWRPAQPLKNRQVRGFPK

The first assay deals with T1, hCA II (Homo sapiens, UniProt P00918).
T1 construct: gene CA2; recombinant human CA II, obtained in-house
In words: stopped-flow CO2 hydration assay.
Conditions: not given
The format is biochemical. From the text: stopped-flow CO2 hydration assay on hCA II
The compound `CC(C)C(C#N)N1CCN(c2ncnc3ccsc23)CC1` (stereo not drawn) [compound 16, Z1251205249] registered a Ki of 0.97 µM.
Still for that read-out and setting: in the case of `CC(C)C(C#N)N1CCN(CC(=O)NCc2ccccn2)CC1` (stereo not drawn) [compound 17, Z1176496598] it was 0.78 µM.
Still for that read-out and setting: under `CCNC(=O)CCCC(=O)N1CCN(C(C#N)c2ccccc2)CC1` (stereo not drawn) [compound 18, Z1185260979] stands 0.93 µM; under `COc1ccc(C(C#N)N2CCN(C(=O)C3CCCCC3)CC2)cc1` (stereo not drawn) [compound 30, Z146384300], 0.91 µM; under `CCc1noc(CC)c1CC(=O)N1CCN(C(C#N)C(C)C)CC1` (stereo not drawn) [compound 31, Z1390085782], 0.76 µM.
Still for that read-out and setting: in the case of `CNS(=O)(=O)CCCN1CCN(C(C#N)c2ccccc2)CC1` (stereo not drawn) [compound 32, Z1395303258] it was 0.86 µM; in that of `Cc1ccccc1CN1CCN(C(=O)CN2CCN(C(C#N)C(C)C)CC2)CC1` (stereo not drawn) [compound 35, Z1171402445], 60.5 µM.
Consider `CC(C)C(C#N)N1CCN(C(=O)CSc2ccc(Br)cc2)CC1` (stereo not drawn) [compound 36, Z1167646026], for which the Ki is 29.8 µM. Compared with the last compound, the Ki is about 2-fold lower.
The same measure, in the same setting: under `CC(C)C(C#N)N1CCN(C(=O)C2CCCO2)CC1` (stereo not drawn) [compound 39, Z1167645477] stands 20.4 µM; under `COc1ccc(C(=O)N2CCN(C(C#N)C(C)C)CC2)cc1OC(F)F` (stereo not drawn) [compound 46, Z1126852482], 3.7 µM.
On the same count and under the same terms, in the case of `CC(C)C(C#N)N1CCN(Cc2nccn2CC(F)(F)F)CC1` (stereo not drawn) [compound 47, Z1176495724] it was 38.2 µM.
Same read-out and setting: in the case of `Cn1cc(CN2CCN(C(C#N)c3ccccc3)CC2)c(-c2cccnc2)n1` (stereo not drawn) [compound 50, Z1470771430] it was 0.68 µM.

The same assay, now with this note: CO2 […]; […] Hepes pH […]; […] Na2SO4; room temperature; […] min pre-incubation.
`COc1ccc(C(C#N)N2CCN(C(=O)c3ccc(Br)cc3)CC2)cc1` (stereo not drawn) [compound 4, Z118259550]: the Ki is above 100 µM.
Same read-out and setting: in the case of `N#CC(Nc1ccc(F)cc1)c1ccco1` (stereo not drawn) [compound 5, Z131022682] it was 8.1 µM; in that of `COc1ccc(C(C#N)N2CCN(C(=O)c3ccc4[nH]c5c(c4c3)CC(C)CC5)CC2)cc1` (stereo not drawn) [compound 7, Z118259780], above 100 µM.
Same read-out and setting: under `N#CC(c1ccccc1)N1CCN(C(=O)C2CCN(S(=O)(=O)c3ccccc3F)CC2)CC1` (stereo not drawn) [compound 8, Z118260178] stands 74.3 µM; under `COc1ccc(C(C#N)N2CCN(C(=O)c3ccc(S(=O)(=O)N4CCCCCC4)cc3)CC2)cc1` (stereo not drawn) [compound 9, Z118259626], above 100 µM.
Still for that read-out and setting: under `N#CC(c1ccccc1)N1CCN(C(=O)c2ccccc2)CC1` (stereo not drawn) [compound 10, Z146786712] stands 53.7 µM; under `N#CC(C1CCCCC1)N1CCN(C(=O)CCc2ccccn2)CC1` (stereo not drawn) [compound 12, Z913897024], 40.9 µM; under `CC1(C)CN(C(C#N)c2ccc(Cl)cc2)CCO1` (stereo not drawn) [compound 13, Z1097120891], 7.4 µM.
Consider `CCNC(=O)C1CCCN(C(C#N)c2c(F)cccc2Cl)C1` (stereo not drawn) [compound 14, Z1230758078], for which the Ki was determined as 9.3 µM.
In turn, `CC(C)C(C#N)N1CCN(c2ncnc3cc(F)ccc23)CC1` (stereo not drawn) [compound 15, Z1251205230] showed an inhibitory constant (Ki) above 100 µM.
Same read-out and setting: under `N#CC1CN(C(=O)CCc2ccsc2)CCN1Cc1ccccc1` (stereo not drawn) [compound 19, Z1204316164] stands 9.6 µM.
Still for that read-out and setting: under `Cc1cnc(C(=O)N2CCN(Cc3ccccc3)C(C#N)C2)cn1` (stereo not drawn) [compound 20, Z1204317166] stands 100 µM; under `N#Cc1nccnc1N1CCN(Cc2ccccc2)C(C#N)C1` (stereo not drawn) [compound 21, Z1205181012], above 100 µM.
On to `CCC(CC)c1cc(C(=O)N2CCN(C(C#N)C(C)C)CC2)on1` (stereo not drawn) [compound 22, Z1261078980], for which the Ki was above 100 µM.
Still for that read-out and setting: in the case of `CC(C)C(C#N)N1CCN(C(=O)c2scnc2C(C)(C)C)CC1` (stereo not drawn) [compound 23, Z1322755479] it was 9.1 µM.
The same measure, in the same setting: under `N#CC(c1c(F)cccc1Cl)N1CCCC(N2CCNC2=O)C1` (stereo not drawn) [compound 24, Z1298330150] stands 16 µM; under `N#CC(c1c(F)cccc1Cl)N1CCC(N2CCCC2=O)CC1` (stereo not drawn) [compound 25, Z1298979831], 36.1 µM; under `CNC(=O)C1CCN(C(C#N)c2c(F)cccc2Cl)CC1` (stereo not drawn) [compound 26, Z1297989190], 3 µM.
The same measure, in the same setting: under `CC(C)C(C#N)N1CCN(C(=O)C/C=C/c2cccc(F)c2)CC1` (stereo not drawn) [compound 27, Z1343956502] stands above 100 µM; under `N#CC(c1ccccc1)N1CCN(CC(=O)NC2CCOCC2)CC1` (stereo not drawn) [compound 28, Z1317906129], 8.9 µM; under `N#CC(c1ccccc1)N1CCN(Cc2cccnc2)CC1` (stereo not drawn) [compound 29, Z1317905741], 3.7 µM.
Consider `N#CC(c1ccccc1)N1CCN(CC(=O)NCC2CCC2)CC1` (stereo not drawn) [compound 33, Z1395304494], for which the affinity, expressed as Ki, was 5.3 µM.
The same measure, in the same setting: in the case of `Cc1ccc(N(CC(=O)N2CCN(C(C#N)C(C)C)CC2)C(C)C)cc1` (stereo not drawn) [compound 34, Z1567293695] it was 5 µM.
Same read-out and setting: under `N#CC(c1ccccc1)N1CCN(CC2CCOC2)CC1` (stereo not drawn) [compound 37, Z1395305944] stands 2.3 µM.
Still for that read-out and setting: in the case of `N#CC(c1ccc(Br)cc1)N1CCN(CCN2C(=O)CNC2=O)CC1` (stereo not drawn) [compound 38, Z1567199718] it was 5 µM; in that of `CC(C#N)N1CCN(C(=O)OC(C)(C)C)CC1` (stereo not drawn) [compound 40, Z1124717499], 41.9 µM; in that of `Cc1ccc(C(=O)NCC(=O)N2CCN(C(C#N)C(C)C)CC2)cc1` (stereo not drawn) [compound 41, Z1416783341], 35.1 µM.
For the compound `N#CC1COCCN1` (stereo not drawn) [compound 43, Z1198234963], the Ki is above 100 µM.
Still for that read-out and setting: under `CC(C)C(C#N)N1CCN(C(=O)CN2CCOC(c3ccc(F)cc3)C2)CC1` (stereo not drawn) [compound 45, Z1567277098] stands 40.9 µM; under `Cc1ccc(C(=O)C2CCN(CC(=O)N3CCN(C(C#N)C(C)C)CC3)CC2)cc1` (stereo not drawn) [compound 48, Z1567280757], 5.5 µM; under `N#CC(c1ccccc1)N1CCN(CC(=O)NCC(F)(F)F)CC1` (stereo not drawn) [compound 49, Z1317905463], 3.5 µM.

Another assay concerns the target T2, bCA (Bos taurus, UniProt P00921).
T2 construct: gene CA2; commercial bovine carbonic anhydrase
Nature of the assay: biochemical. Also on record: Differential scanning fluorimetry (SYPRO Orange) melting temperature shift of bCA, 20 uM compound.
Conditions: not given
The protocol:
(§1) Thermal shift assay was carried out using ViiA™ 7 Real-Time PCR System equipped with 384-well block (Applied Biosystems, USA). The TSA procedure was adopted from the literature[6–8] and was modified in order to allow measuring the bCA melting temperature on interaction with various compounds, including the known CA inhibitor azetazolamide (AZ)[9], which was used in this study as a reference bCA binder at 10 and 20 µM concentration. For 800-compound screening, the test reactions were set up in the following buffer: 10 mM NaH2PO4/Na2HPO4, pH 7.0, 10 mM NaCl. The total volume of the reaction mixture per well was 10 µL. Carbonic anhydrase (Sigma Aldrich Cat# C3934) in 300 µg/mL concentration was pre-mixed with environment-sensitive SYPRO orange dye (Invitrogen, Cat# S6650) at final concentration in the reaction of 10 ×, with regard to the stock concentration stated by the vendor. The mixtures were pre-incubated for 1 h at 4 °C with 20 µM concentrations of the compounds (and 1% final concentration of DMSO), placed into MicroAmp® Optical 384-Well Reaction Plate (ThermoFisher, Cat# 4309849). The reaction mixture was kept at room temperature for 15 min to ensure full protein-compound interactions. The temperature was raised at 1.6 °C/s rate to 40 °C without signal reading. Starting from 40 °C up to 85 °C the heating rate was set to 0.05 °C/s with constant fluorescence reading, using 470/623 nm filter set. The raw data of dye fluorescence intensity change upon melting of the protein were obtained from the instrument ViiA 7 RUO software. Further data processing and visualisation was performed by custom-made Microsoft Excel scripts. The peak of the first derivative for the fluorescence curve was used to define melting temperature Tm. Tm for DMSO control wells, having only protein, dye and 1% DMSO was used as a To to determine melting temperature shifts (ΔTm). All measurements were made in quadruplicates.
In the case of `CC(C)C(C#N)N1CCN(c2ncnc3ccsc23)CC1` (stereo not drawn) [compound 16, Z1251205249], the ΔTm at 20 µM turned out to be 1.5 °C.
Same read-out and setting: under `CC(C)C(C#N)N1CCN(CC(=O)NCc2ccccn2)CC1` (stereo not drawn) [compound 17, Z1176496598] stands 1.14 °C; under `CCNC(=O)CCCC(=O)N1CCN(C(C#N)c2ccccc2)CC1` (stereo not drawn) [compound 18, Z1185260979], 1.41 °C.
As to `COc1ccc(C(C#N)N2CCN(C(=O)C3CCCCC3)CC2)cc1` (stereo not drawn) [compound 30, Z146384300], the ΔTm at 20 µM was found to be 1.64 °C.
Still for that read-out and setting: in the case of `CCc1noc(CC)c1CC(=O)N1CCN(C(C#N)C(C)C)CC1` (stereo not drawn) [compound 31, Z1390085782] it was 1.55 °C; in that of `Cc1ccccc1CN1CCN(C(=O)CN2CCN(C(C#N)C(C)C)CC2)CC1` (stereo not drawn) [compound 35, Z1171402445], 1.82 °C.
As for `Cn1cc(CN2CCN(C(C#N)c3ccccc3)CC2)c(-c2cccnc2)n1` (stereo not drawn) [compound 50, Z1470771430], the ΔTm at 20 µM came to 1.37 °C.

The target in another assay is T2, bCA. Nature of the assay: biochemical. Set-up: differential scanning fluorimetry (thermal shift) with SYPRO Orange, bovine carbonic anhydrase.
Conditions: not given
This is another data set of the same source. Here is the method: as §1, with “For” for “Thermal shift assay was carried out using ViiA™ 7 Real-Time PCR System equipped with 384-well block (Applied Biosystems, USA). The TSA procedure was adopted from the literature[6–8] and was modified in order to allow measuring the bCA melting temperature on interaction with various compounds, including the known CA inhibitor azetazolamide (AZ)[9], which was used in this study as a reference bCA binder at 10 and 20 µM concentration. For”, “quadruplicates. Thermal shift assay was carried out using ViiA™ 7 Real-Time PCR System equipped with 384-well block (Applied Biosystems, USA). The TSA procedure was adopted from the literature[6–8] and was modified in order to allow measuring the bCA melting temperature on interaction with various compounds, including the known CA inhibitor azetazolamide (AZ)[9], which was used in this study as a reference bCA binder at 10 and 20 µM concentration.” for “quadruplicates.”
Regarding `CC(C)C(C#N)N1CCN(C(=O)CSc2ccc(Br)cc2)CC1` (stereo not drawn) [compound 36], the ΔTm at 20 µM was 1.64 °C.
Consider `CC(C)C(C#N)N1CCN(C(=O)C2CCCO2)CC1` (stereo not drawn) [compound 39], for which the ΔTm at 20 µM came to 1.64 °C.
Same read-out and setting: under `COc1ccc(C(=O)N2CCN(C(C#N)C(C)C)CC2)cc1OC(F)F` (stereo not drawn) [compound 46] stands 1.37 °C.
Still for that read-out and setting: in the case of `CC(C)C(C#N)N1CCN(Cc2nccn2CC(F)(F)F)CC1` (stereo not drawn) [compound 47] it was 1.19 °C.

As usually defined, the Ki is the dissociation constant of the complex between target and ligand, obtained from inhibition or displacement. A high value points to lower affinity. For orientation: ΔTm means the change in melting temperature against a reference sample.
